Measurements from patent US12152035B2, “Androgen receptor binding molecule and use thereof” (Industrial Technology Research Institute, priority 2020, dated 2024).

Key:
Assay type in all cases: cell-based
[1] = test system: full-length androgen receptor; test: Western blot: degradation of full-length androgen receptor in CWR22RV1 cells; conditions: overnight
Procedure, shortened: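 CWR22Rv1 cells (5×10^5 per well) seeded overnight in RPMI with 10% FBS at 37 °C, 5% CO2, then given fresh medium and compound at various concentrations overnight. Lysates analysed by Western blot for full-length AR and AR-V7, with GAPDH as loading control.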

VCaP cells = test: Cytotoxicity assay (AlamarBlue, 72 hours); conditions: 72 hours treatment, concentration not given
Procedure, shortened: (§1)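 CWR22Rv1 or VCaP cells in RPMI-1640 with 10% FBS were seeded at 1×10^4 cells/well. Next day they were treated with compound, test samples at 100, 10, 1 and 0.1 μM, giving 1% DMSO final. After 72 h, AlamarBlue was added for 4 h, fluorescence was read at Ex/Em 560/590 nm, and % cytotoxicity was calculated.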

CWR22RV1 cells = test: Cytotoxicity assay (AlamarBlue, 72 hours); conditions: 72 hours treatment, concentration not given
Procedure, shortened: as §1

[2] = compound concentration 0.1 (unit not given)
[3] = compound concentration 1 (unit not given)
[4] = compound concentration 10 (unit not given)

SMILES | Degradation ability for full-length androgen receptor (residual rate %) [1, 2] | Degradation ability for full-length androgen receptor (residual rate %) [1, 3] | Degradation ability for full-length androgen receptor (residual rate %) [1, 4] | Cytotoxicity, VCaP cells (cell viability %) (VCaP cells) | Cytotoxicity, CWR22RV1 cells (cell viability %) (CWR22RV1 cells)
CC1(C)[C@H](NC(=O)c2ccc(C#CC3CCN(c4cccc5c4C(=O)N(C4CCC(=O)NC4=O)C5=O)CC3)cc2)C(C)(C)[C@H]1Oc1ccc2nnc(C(F)(F)F)n2n1 (stereo partly shown) [Compound 46, 4-((1-(2-(2,6-dioxopiperidin-3-yl)-1,3-dioxoisoindolin-4-yl)piperidin-4-yl)ethynyl)-N-((1r,3r)-2,2,4,4-tetramethyl-3-((3-(trifluoromethyl)-[1,2,4]triazolo[4,3-b]pyridazin-6-yl)oxy)cyclobutyl)benzamide] | ++ (40-60%: ++) | ++ (40-60%: ++) | − (>80%; −) | ++ (40-60% : ++) | − (<80% : −)
O=C1CCC(N2C(=O)c3cccc(N4CCN(c5ccc(C(=O)N[C@H]6CC[C@H](Oc7ccc8nnc(C(F)(F)F)n8n7)CC6)cn5)CC4)c3C2=O)C(=O)N1 (stereo partly shown) [Compound 47, 6-(4-(2-(2,6-dioxopiperidin-3-yl)-1,3-dioxoisoindolin-4-yl)piperazin-1-yl)-N-((1r,4r)-4-((3-(trifluoromethyl)-[1,2,4]triazolo[4,3-b]pyridazin-6-yl)oxy)cyclohexyl)nicotinamide] | ++ (40-60%: ++) | +++ (<40%: +++) | + (60-80%: +) | ++ (40-60% : ++) | − (<80% : −)
O=C1CCC(N2C(=O)c3cccc(N4CCC(CN5CCN(c6ccc(C(=O)N[C@H]7CC[C@H](Oc8ccc9nnc(C(F)(F)F)n9n8)CC7)cn6)CC5)CC4)c3C2=O)C(=O)N1 (stereo partly shown) [Compound 48, 6-(4-((1-(2-(2,6-dioxopiperidin-3-yl)-1,3-dioxoisoindolin-4-yl)piperidin-4-yl)methyl)piperazin-1-yl)-N-((1r,4r)-4-((3-(trifluoromethyl)-[1,2,4]triazolo[4,3-b]pyridazin-6-yl)oxy)cyclohexyl)nicotinamide] | − (>80%; −) | − (>80%; −) | − (>80%; −) | − (<80% : −) | − (<80% : −)
CC1(C)C(NC(=O)c2ccc(C#CC3CCN(C(=O)CNc4cccc5c4C(=O)N(C4CCC(=O)NC4=O)C5=O)CC3)cc2)C(C)(C)C1Oc1ccc2nnc(C(F)(F)F)n2n1 (stereo not shown) [Compound 49, 4-((1-((2-(2,6-dioxopiperidin-3-yl)-1,3-dioxoisoindolin-4-yl)glycyl)piperidin-4-yl)ethynyl)-N-((1r,3r)-2,2,4,4-tetramethyl-3-((3-(trifluoromethyl)-[1,2,4]triazolo[4,3-b]pyridazin-6-yl)oxy)cyclobutyl)benzamide] | ++ (40-60%: ++) | ++ (40-60%: ++) | − (>80%; −) | +++ (<40% : +++) | ++ (40-60% : ++)
O=C1CCC(N2C(=O)c3cccc(NCC(=O)N4CCC(N5CCC(C#Cc6ccc(C(=O)Nc7ccc(C8CCN(C9=Nn%10c(nnc%10C(F)(F)F)CC9)CC8)cc7)nc6)CC5)CC4)c3C2=O)C(=O)N1 (stereo not shown) [Compound 51, 5-((1′-((2-(2,6-dioxopiperidin-3-yl)-1,3-dioxoisoindolin-4-yl)glycyl)-[1,4′-bipiperidin]-4-yl)ethynyl)-N-(4-(1-(3-(trifluoromethyl)-7,8-dihydro-[1,2,4]triazolo[4,3-b]pyridazin-6-yl)piperidin-4-yl)phenyl)picolinamide] | − (>80%; −) | − (>80%; −) | + (60-80%: +) | +++ (<40% : +++) | +++ (<40% : +++)
